From patent publication EP4755886A1 (Chengdu Chipscreen Pharmaceutical Ltd., priority 2023, dated 2025)

Legend:
wild-type HCT-116 cells = assay: Cell proliferation (MTS), wild-type HCT-116; assay type: cell-based; settings: Homo sapiens, 240 h; wild-type HCT-116, 10 days with compound, MTS reading; read-out: IC50 HCT116 WT
Outline: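 Wild-type HCT-116 cells were seeded at 100 cells/well in McCoy's 5A/10% FBS. From day 1 they were treated with compound in 3-fold dilutions (initial 20 µM, 8 points) for 10 days at 37° C. Proliferation was read by MTS on day 11, and IC50 was obtained from a four-parameter logistic fit.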

MTAP^-/- HCT-116 cells = assay: Cell proliferation (MTS), MTAP-/- HCT-116; assay type: cell-based, human; settings: for Selectivity: HCT116 WT IC50 relative to HCT116 MTAP-/- IC50; for IC50: Homo sapiens, 240 h, MTAP-/- HCT-116, 10 days with compound, MTS reading, read-out: IC50 HCT116 MTAP-/-
Outline: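 MTAP-/- (CRISPR/Cas9 biallelic knockout) or wild-type HCT-116 cells seeded at 100 cells/well, treated next day with 8-point 3-fold dilutions (top 20 µM) for 10 days at 37 °C, 5% CO2. Viability read by MTS; IC50 from four-parameter logistic fit of inhibition rate vs log concentration.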

CN(C(=O)c1cc2c(cc1F)nc(N)c1cnn(C)c12)[C@@H]1COc2cc(C#Cc3ccn(C)n3)ccc21 [Compound 21A, (S)-4-amino-7-fluoro-N,1-dimethyl-N-(6-((1-methyl-1H-pyrazol-3-yl)ethynyl)-2,3-dihydrobenzofuran-3-yl)-1H-pyrazolo[4,3-c]quinoline-8-carboxamide]
IC50 (wild-type HCT-116 cells): 233 nM
Selectivity (MTAP^-/- HCT-116 cells): 86.3
IC50 (MTAP^-/- HCT-116 cells): 2.7 nM

CCn1cc(C#Cc2ccc3c(c2)OC[C@H]3N(C)C(=O)c2ccc3nc(N)c4cnn(C)c4c3c2)cn1 [Compound 20A, (S)-4-amino-N-(6-((1-ethyl-1H-pyrazol-4-yl)ethynyl)-2,3-dihydrobenzofuran-3-yl)-N,1-dimethyl-1H-pyrazolo[4,3-c]quinoline-8-carboxamide]
IC50 (wild-type HCT-116 cells): 1040 nM
Selectivity (MTAP^-/- HCT-116 cells): 170
IC50 (MTAP^-/- HCT-116 cells): 6.1 nM

CN(C(=O)c1ccc2nc(N)c3cnn(C)c3c2c1)C1COc2cc(C#Cc3cn(C)nc3C(F)(F)F)ccc21 (stereo not drawn) [Compound 31, 4-amino-N,1-dimethyl-N-(6-((1-methyl-3-(trifluoromethyl)-1H-pyrazol-4-yl)ethynyl)-2,3-dihydrobenzofuran-3-yl)-1H-pyrazolo[4,3-c]quinoline-8-carboxamide]
IC50 (wild-type HCT-116 cells): 1460 nM
Selectivity (MTAP^-/- HCT-116 cells): 102
IC50 (MTAP^-/- HCT-116 cells): 14.2 nM

CCN(C(=O)c1cc2c(cc1F)nc(N)c1cnn(C)c12)C1COc2cc(C#Cc3cnn(C)c3)ccc21 (stereo not drawn) [Compound 27, 4-amino-N-ethyl-7-fluoro-1-methyl-N-(6-((1-methyl-1H-pyrazol-4-yl)ethynyl)-2,3-dihydrobenzofuran-3-yl)-1H-pyrazolo[4,3-c]quinoline-8-carboxamide]
IC50 (wild-type HCT-116 cells): 185 nM
Selectivity (MTAP^-/- HCT-116 cells): 58
IC50 (MTAP^-/- HCT-116 cells): 3.2 nM

CCN(C(=O)c1ccc2nc(N)c3cnn(C)c3c2c1)C1COc2cc(C#Cc3cnn(C)c3)ccc21 (stereo not drawn) [Compound 7, 4-amino-N-ethyl-1-methyl-N-(6-((1-methyl-1H-pyrazol-4-yl)ethynyl)-2,3-dihydrobenzofuran-3-yl)-1H-pyrazolo[4,3-c]quinoline-8-carboxamide]
IC50 (wild-type HCT-116 cells): 593 nM
Selectivity (MTAP^-/- HCT-116 cells): 110
IC50 (MTAP^-/- HCT-116 cells): 5.4 nM

CN(C(=O)c1cc2c3c(c(N)nc2cc1Cl)COC3)C1COCc2cc(C#Cc3cnn(C4CC4)c3)ccc21 (stereo not drawn) [Compound 87, 4-amino-7-chloro-N-(7-((1-cyclopropyl-1H-pyrazol-4-yl)ethynyl)isochroman-4-yl) -N-methyl-1,3-dihydrofuro[3,4-c]quinoline-8-carboxamide]
IC50 (wild-type HCT-116 cells): 504 nM
Selectivity (MTAP^-/- HCT-116 cells): 56
IC50 (MTAP^-/- HCT-116 cells): 9 nM

CC(C)n1cc(C#Cc2ccc3c(c2)OCC3N(C)C(=O)c2cc3c(cc2F)nc(N)c2cnn(C)c23)cn1 (stereo not drawn) [Compound 13, 4-amino-7-fluoro-N-(6-((1-isopropyl-1H-pyrazol-4-yl)ethynyl)-2,3-dihydrobenzof uran-3-yl)-N,1-dimethyl-1H-pyrazolo[4,3-c]quinoline-8-carboxamide]
IC50 (wild-type HCT-116 cells): 607 nM
Selectivity (MTAP^-/- HCT-116 cells): 55
IC50 (MTAP^-/- HCT-116 cells): 11 nM

Cc1cc2nc(N)c3cnn(C)c3c2cc1C(=O)N(C)[C@@H]1COc2cc(C#Cc3cnn(C(F)F)c3)ccc21 [Compound 83A]
IC50 (wild-type HCT-116 cells): 62 nM
Selectivity (MTAP^-/- HCT-116 cells): 62
IC50 (MTAP^-/- HCT-116 cells): 1 nM

Cc1ccc(C#Cc2ccc3c(c2)OC[C@H]3N(C)C(=O)c2cc3c(cc2Cl)nc(N)c2cnn(C)c23)cn1 [Compound 55A, (S)-4-amino-7-chloro-N,1-dimethyl-N-(6-((6-methylpyridin-3-yl)ethynyl)-2,3-dihydrobenzofuran-3-yl)-1H-pyrazolo[4,3-c]quinoline-8-carboxamide]
IC50 (wild-type HCT-116 cells): 217 nM
Selectivity (MTAP^-/- HCT-116 cells): 43
IC50 (MTAP^-/- HCT-116 cells): 5 nM

Cn1cc(C#Cc2ccc3c(c2)OCC3N(C(=O)c2ccc3nc(N)c4cnn(C)c4c3c2)C2CC2)cn1 (stereo not drawn) [Compound 2, 4-amino-N-cyclopropyl-1-methyl-N-{6-[(1-methylpyrazol-4-yl)ethynyl]-2,3-dihydro-1-benzofuran-3-yl}pyrazolo[4,3-c]quinoline-8-carboxamide]
IC50 (wild-type HCT-116 cells): 1030 nM
Selectivity (MTAP^-/- HCT-116 cells): 74
IC50 (MTAP^-/- HCT-116 cells): 13.9 nM

Cc1cc2nc(N)c3cnn(C)c3c2cc1C(=O)N(C)C1COc2cc(C#Cc3cnn(C4CC4)c3)ccc21 (stereo not drawn) [Compound 11, 4-amino-N-(6-((1-cyclopropyl-1H-pyrazol-4-yl)ethynyl)-2,3-dihydrobenzofuran-3-yl)-N,1,7-trimethyl-1H-pyrazolo[4,3-c]quinoline-8-carboxamide]
IC50 (wild-type HCT-116 cells): 185 nM
Selectivity (MTAP^-/- HCT-116 cells): 62
IC50 (MTAP^-/- HCT-116 cells): 3 nM

CN(C(=O)c1cc2c3c(c(N)nc2cc1Cl)COC3)[C@@H]1COc2cc(C#Cc3cnn4c3CCC4)ccc21 [Compound 88A, (S)-4-amino-7-chloro-N-(6-((5,6-dihydro-4H-pyrrolo[1,2-b]pyrazol-3-yl)ethynyl)-2,3-dihydrobenzofuran-3-yl)-N-methyl-1,3-dihydrofuro[3,4-c]quinoline-8-carbox amide]
IC50 (wild-type HCT-116 cells): 777 nM
Selectivity (MTAP^-/- HCT-116 cells): 173
IC50 (MTAP^-/- HCT-116 cells): 4.5 nM

CN(C(=O)c1cc2c(cc1Cl)nc(N)c1cnn(C)c12)C1COc2cc(C#Cc3ccn(C)n3)ccc21 (stereo not drawn) [Compound 18, 4-amino-7-chloro-N,1-dimethyl-N-(6-((1-methyl-1H-pyrazol-3-yl)ethynyl)-2,3-dihydrobenzofuran-3-yl)-1H-pyrazolo[4,3-c]quinoline-8-carboxamide]
IC50 (wild-type HCT-116 cells): 159 nM
Selectivity (MTAP^-/- HCT-116 cells): 53
IC50 (MTAP^-/- HCT-116 cells): 3 nM

CN(C(=O)c1ccc2nc(N)c3cnn(C)c3c2c1)[C@@H]1COc2cc(C#Cc3cnn(C(F)F)c3)ccc21 [Compound 30A, (S)-4-amino-N-(6-((1-(difluoromethyl)-1H-pyrazol-4-yl)ethynyl)-2,3-dihydrobenzofuran-3-yl)-N,1-dimethyl-1H-pyrazolo[4,3-c]quinoline-8-carboxamide]
IC50 (wild-type HCT-116 cells): 240 nM
Selectivity (MTAP^-/- HCT-116 cells): 83
IC50 (MTAP^-/- HCT-116 cells): 2.9 nM

CN(C(=O)c1cc2c(cc1F)nc(N)c1cnn(C)c12)C1COCc2cc(C#Cc3cnn(C4CC4)c3)ccc21 (stereo not drawn) [Compound 85, 4-amino-N-(7-((1-cyclopropyl-1H-pyrazol-4-yl)ethynyl)isochroman-4-yl)-7-fluoro -N,1-dimethyl-1H-pyrazolo[4,3-c]quinoline-8-carboxamide]
IC50 (wild-type HCT-116 cells): 165 nM
Selectivity (MTAP^-/- HCT-116 cells): 55
IC50 (MTAP^-/- HCT-116 cells): 3 nM

Cc1c(C#Cc2ccc3c(c2)OCC3N(C)C(=O)c2ccc3nc(N)c4cnn(C)c4c3c2)cnn1C (stereo not drawn) [Compound 29, 4-amino-N-(6-((1,5-dimethyl-1H-pyrazol-4-yl)ethynyl)-2,3-dihydrobenzofuran-3-yl)-N,1-dimethyl-1H-pyrazolo[4,3-c]quinoline-8-carboxamide]
IC50 (wild-type HCT-116 cells): 1500 nM
Selectivity (MTAP^-/- HCT-116 cells): 153
IC50 (MTAP^-/- HCT-116 cells): 9.8 nM

CN(C(=O)c1cc2c3c(c(N)nc2cc1Cl)COC3)[C@@H]1COc2cc(C#Cc3ccc4cnn(C)c4c3)ccc21 [Compound 62A, (S)-4-amino-7-chloro-N-methyl-N-(6-((1-methyl-1H-indazol-6-yl)ethynyl)-2,3-dihydrobenzofuran-3-yl)-1,3-dihydrofuro[3,4-c]quinoline-8-carboxamide]
IC50 (wild-type HCT-116 cells): 1260 nM
Selectivity (MTAP^-/- HCT-116 cells): 79
IC50 (MTAP^-/- HCT-116 cells): 15.9 nM

CN(C(=O)c1cc2c3c(c(N)nc2cc1Cl)COC3)[C@@H]1COc2cc(C#Cc3ccnn3C)ccc21 [Compound 78A, (S)-4-amino-7-chloro-N-methyl-N-(6-((1-methyl-1H-pyrazol-5-yl)ethynyl)-2,3-dihydrobenzofuran-3-yl)-1,3-dihydrofuro[3,4-c]quinoline-8-carboxamide]
IC50 (wild-type HCT-116 cells): 512 nM
Selectivity (MTAP^-/- HCT-116 cells): 131
IC50 (MTAP^-/- HCT-116 cells): 3.9 nM

Cc1cc2nc(N)c3cnn(C)c3c2cc1C(=O)N(C)C1COc2cc(C#Cc3cnn(C)c3)ccc21 (stereo not drawn) [Compound 10, 4-amino-N,1,7-trimethyl-N-(6-((1-methyl-1H-pyrazol-4-yl)ethynyl)-2,3-dihydrobenzofuran-3-yl)-1H-pyrazolo[4,3-c]quinoline-8-carboxamide]
IC50 (wild-type HCT-116 cells): 162 nM
Selectivity (MTAP^-/- HCT-116 cells): 81
IC50 (MTAP^-/- HCT-116 cells): 2 nM

[2H]C([2H])([2H])N(C(=O)c1cc2c(cc1F)nc(N)c1cnn(C)c12)[C@@H]1COc2cc(C#Cc3cnn(C)c3)ccc21 [Compound 79A, (S)-4-amino-7-fluoro-1-methyl-N-(methyl-D3)-N-(6-((1-methyl-1H-pyrazol-4-yl)ethynyl)-2,3-dihydrobenzofuran-3-yl)-1H-pyrazolo[4,3-c]quinoline-8-carboxamide]
IC50 (wild-type HCT-116 cells): 304 nM
Selectivity (MTAP^-/- HCT-116 cells): 152
IC50 (MTAP^-/- HCT-116 cells): 2 nM

CN(C(=O)c1ccc2nc(N)c3cnn(C)c3c2c1)C1COc2cc(C#Cc3cn(C)nc3Cl)ccc21 (stereo not drawn) [Compound 34, 4-amino-N-(6-((3-chloro-1-methyl-1H-pyrazol-4-yl)ethynyl)-2,3-dihydrobenzofuran-3-yl)-N,1-dimethyl-1H-pyrazolo[4,3-c]quinoline-8-carboxamide]
IC50 (wild-type HCT-116 cells): 1140 nM
Selectivity (MTAP^-/- HCT-116 cells): 150
IC50 (MTAP^-/- HCT-116 cells): 7.6 nM

CN(C(=O)c1cc2c(cc1Cl)nc(N)c1cnn(C)c12)[C@@H]1COc2cc(C#Cc3ccnn3C)ccc21 [Compound 53A, (S)-4-amino-7-chloro-N,1-dimethyl-N-(6-((1-methyl-1H-pyrazol-5-yl)ethynyl)-2,3-dihydrobenzofuran-3-yl)-1H-pyrazolo[4,3-c]quinoline-8-carboxamide]
IC50 (wild-type HCT-116 cells): 45 nM
Selectivity (MTAP^-/- HCT-116 cells): 45
IC50 (MTAP^-/- HCT-116 cells): 1 nM

CN(C(=O)c1ccc2nc(N)c3cnn(C)c3c2c1)[C@@H]1COc2cc(C#Cc3cn(C)nc3C(F)(F)F)ccc21 [Compound 31A, (S)-4-amino-N,1-dimethyl-N-(6-((1-methyl-3-(trifluoromethyl)-1H-pyrazol-4-yl)ethynyl)-2,3-dihydrobenzofuran-3-yl)-1H-pyrazolo[4,3-c]quinoline-8-carboxamide]
IC50 (wild-type HCT-116 cells): 192 nM
Selectivity (MTAP^-/- HCT-116 cells): 58
IC50 (MTAP^-/- HCT-116 cells): 3.3 nM
